Patent US20190060298A1, “NEW DRUG FOR THE TREATMENT AND/OR PREVENTION OF DEPRESSIVE DISORDERS” (SORBONNE UNIVERSITE, priority 2013, published 2019)
“Also recorded” adds a separate entry of the source.

What was measured:
[1] = test system: patients suffering of bipolar depression; details: cited from earlier work
Keap1 [2] = experiment: Superfusion of the hippocampus, Keap1 levels; design: species or system Sprague-Dawley rats; details: perfused hippocampi of DF and control rats; 7,8-DHF 10 μM, 1 h
Experimental: (§1) Hippocampi were homogenized in ice-cold buffer A (10 mM Hepes, 150 mM NaCl, 1 mM EDTA, protease inhibitor cocktail [5 μl/ml] and phosphatase inhibitor cocktail [10 μl/ml]) and Nonidet P-40 (0.5%) was then added. After 10 min on ice, homogenates were centrifuged (1,200×g, 10 min, 4° C.). Supernatants were saved as the cytoplasmic fraction. Pellets were washed in ice-cold buffer A and sedimented by centrifugation at 1,200×g for 10 min at 4° C. Nuclear yield and integrity were checked by Giemsa staining and microscopy. Nuclei were resuspended in ice-cold buffer B (20 mM Hepes, 420 mM NaCl, 1.2 mM MgCl2, 0.2 mM EDTA, 25% glycerol, 0.5 mM DTT, protease inhibitor cocktail [5 μl/ml] and phosphatase inhibitor cocktail [10 μl/ml]). Samples were sonicated (15 s, 4° C.) and vortexed every 5 min for 20 min. The cytoplasmic and nuclear fractions were centrifuged at 20,000×g, for 30 min at 4° C. Supernatants were rapidly frozen in liquid nitrogen and stored at −80° C. […]
(§2) 40 μg of nuclear or cytosolic protein (or 20 μg for cell experiments) was resolved by SDS-polyacrylamide gel electrophoresis in a 12% polyacrylamide gel. […] Protein bands were quantified with Odyssey® software (version 3.0, LI-COR Biosciences). […] Images were acquired with a digital camera-based imaging system (ChemiDoc, Biorad) and analyzed with Quantity One software (Bio-Rad). […]

Keap1 [3] = experiment: Keap1 levels in hippocampal HT22 cells; type: cell-based; details: 30 min, BDNF 100 ng/ml or 7,8-DHF 10 μM
Experimental: as §1, §2

Nrf2 [4] = experiment: Superfusion of the hippocampus, Nrf2 levels; design: species or system Sprague-Dawley rats; details: 7,8-DHF 10 μM, 1 h; for cytosolic Nrf2 concentration: perfused hippocampi
Experimental: (§3) Hippocampi were homogenized in ice-cold buffer A (10 mM Hepes, 150 mM NaCl, 1 mM EDTA, protease inhibitor cocktail [5 μl/ml] and phosphatase inhibitor cocktail [10 μl/ml]) and Nonidet P-40 (0.5%) was then added. After 10 min on ice, homogenates were centrifuged (1,200×g, 10 min, 4° C.). Supernatants were saved as the cytoplasmic fraction. Pellets were washed in ice-cold buffer A and sedimented by centrifugation at 1,200×g for 10 min at 4° C. Nuclear yield and integrity were checked by Giemsa staining and microscopy. Nuclei were resuspended in ice-cold buffer B (20 mM Hepes, 420 mM NaCl, 1.2 mM MgCl2, 0.2 mM EDTA, 25% glycerol, 0.5 mM DTT, protease inhibitor cocktail [5 μl/ml] and phosphatase inhibitor cocktail [10 μl/ml]). Samples were sonicated (15 s, 4° C.) and vortexed every 5 min for 20 min. The cytoplasmic and nuclear fractions were centrifuged at 20,000×g, for 30 min at 4° C. Supernatants were rapidly frozen in liquid nitrogen and stored at −80° C. A similar protocol was used for cell nuclear and cytosolic extracts.
40 μg of nuclear or cytosolic protein (or 20 μg for cell experiments) was resolved by SDS-polyacrylamide gel electrophoresis in a 12% polyacrylamide gel. The bands were transferred to nitrocellulose or PVDF membranes (Invitrogen, France) for immunoblotting according to standard procedures. We used the following antibody dilutions: 1:250 for rabbit polyclonal antibodies against Nrf2 (Santa Cruz Biotechnology, France), 1:500 for rabbit polyclonal antibodies against Keap1 (Santa Cruz Biotechnology) and 1:5000 for rabbit polyclonal antibodies against aconitase 2 (Gene Tex, France). A dilution of 1:10,000 was used for the fluorescent IRDye® 800CW secondary antibody (ScienceTec, Paris, France). […] Protein bands were quantified with Odyssey® software (version 3.0, LI-COR Biosciences). […] Images were acquired with a digital camera-based imaging system (ChemiDoc, Biorad) and analyzed with Quantity One software (Bio-Rad). […]

[5] = intracerebroventricular administration; cited from earlier work
Nrf2 [6] = experiment: Nrf2 translocation in hippocampal HT22 cells; type: cell-based; details: 30 min, quercetin 10 μM; for nuclear Nrf2 translocation: BDNF 100 ng/ml, 7,8-DHF 10 μM
Experimental: as §3
40 μg of nuclear or cytosolic protein (or 20 μg for cell experiments) was resolved by SDS-polyacrylamide gel electrophoresis in a 12% polyacrylamide gel. The bands were transferred to nitrocellulose or PVDF membranes (Invitrogen, France) for immunoblotting according to standard procedures. We used the following antibody dilutions: 1:250 for rabbit polyclonal antibodies against Nrf2 (Santa Cruz Biotechnology, France), 1:500 for rabbit polyclonal antibodies against Keap1 (Santa Cruz Biotechnology) and 1:5000 for rabbit polyclonal antibodies against aconitase 2 (Gene Tex, France). A dilution of 1:10,000 was used for the fluorescent IRDye® 800CW secondary antibody (ScienceTec, Paris, France). Membranes were also probed with a mouse monoclonal antibody against GAPDH or a mouse monoclonal antibody against beta-actin (dilutions of 1:10,000 and 1:1,000, respectively, Sigma-Aldrich, France) and with the IRDye® 680CW secondary antibody from ScienceTec (1:10,000), to correct for protein loading. Images were acquired with the Odyssey® infrared imaging system (LI-COR Biosciences). Protein bands were quantified with Odyssey® software (version 3.0, LI-COR Biosciences). For SOD1, Prx2 and PrxSO2/SO3 analysis, we used the following antibody dilutions: 1:1000 for rabbit polyclonal antibodies against SOD (Euromedex), 1:2000 for rabbit polyclonal antibodies against PeroxiredoxinSO2/SO3 (Abcam), 1:1000 for rabbit polyclonal antibodies against Peroxiredoxin2 (Abcam). Horseradish peroxidase-conjugated secondary antibodies were used and membranes were developed with the ECL Plus detection reagent (Pierce, Rockford, Ill.). Images were acquired with a digital camera-based imaging system (ChemiDoc, Biorad) and analyzed with Quantity One software (Bio-Rad). […]

In the case of `CC(=O)N[C@@H](CS)C(=O)O` [N-acetylcysteine (NAC), N-acetylcysteine], the depression scores [1] is listed as “induced a robust decrement in depression scores”.

In the case of `O=c1cc(-c2ccccc2)oc2c(O)c(O)ccc12` [7,8-DHF, 7,8-dihydroxyflavone], the Keap1 concentration (Keap1 [2]) is reported as “no change in Keap1 concentration”, the Keap1 levels (Keap1 [3]) is reported as “not affected” and the “nuclear Nrf2 translocation” value (Nrf2 [4]; perfused hippocampi of defeated (DF, D5) and control rats) is reported as “induced a marked translocation of Nrf2 to the nuclear compartment; also recorded: induced Nrf2 translocation to the nucleus to the same level in defeated and control animals”. For the same molecule, the “cytosolic Nrf2 concentration” value (Nrf2 [4]; DF animals (D5)) was “induced a decrease in cytosolic Nrf2 concentration; also recorded: decrease in cytosolic Nrf2 levels”, the “cytosolic Nrf2 concentration” value (Nrf2 [4]; control (C) animals) was “tendency for this concentration to decrease” and the “neuroanatomical alterations (hippocampal CA3 dendritic retraction, increase of amygdala dendritic length)” value [5] was “can prevent neuroanatomical alterations”. The “occurrence of depressive profile” value [5] was “prevent” and the “nuclear Nrf2 translocation” value (Nrf2 [6]) was “induced a marked increase; also recorded: produced similar effects on Nrf2”.

For `O=c1c(O)c(-c2ccc(O)c(O)c2)oc2cc(O)cc(O)c12` [quercetin], the “nuclear Nrf2 translocation” value (Nrf2 [6]) was “induces a translocation of Nrf2 to the nucleus” and the Nrf2 cytosolic fraction (Nrf2 [6]) was “decreased”.

B1: BDNF: brain derived neurotrophic factor, added to HT22 cell medium at 100 ng/ml (protein, UniProt P23560 19-247, looked up)
Neurotrophic factor BDNF …: APMKEANIRGQGGLAYPGVRTHGTLESVNGPKAGSRGLTSLADTFEHVIEELLDEDQKVRPNEENNKDADLYTSRVMLSSQVPLEPPLLFLLEEYKNYLDAANMSMRVRRHSDPARRGELSVCDSISEWVTAADKKTAVDMSGGTVTVLEKVPVSKGQLKQYFYETKCNPMGYTKEGCRGIDKRHWNSQCRTTQSYVRALTMDSKKRIGWRFIRIDTSCVCTLTIKRGR
With B1 the Keap1 levels (Keap1 [3]) was “not affected” and the “nuclear Nrf2 translocation” value (Nrf2 [6]) was “induced a marked increase; also recorded: produced similar effects on Nrf2”.
